The experiment can be described thus: DPPH free radical scavenging activity test (percent inhibition, absorbency at 516 nm). As to conditions: Table 1; 1% solutions, in the manner of Example 1 (DPPH, 30 minutes at 37° C, 516 nm). The class given is biochemical. As for the experimental part:
A control solution was prepared by measuring 39.43 mg of 2,2-diphenyl-1-picrylhydrazyl hydrate (DPPH), a known source of free radicals, and diluting it to 1000 ml with ethanol. A control cuvette was charged with 1.75 ml of the control and 1.75 ml of ethanol. A blank cuvette was charged with 3.5 ml of ethanol. The cuvettes were placed in an oven for 30 minutes at 37° C. The absorbency was measured at 516 nm using a UV/vis spectrophotometer by placing the blank cuvette into the reference slot and the control cuvette into the sample slot.
An orange extract was prepared according to the method described above. A test cuvette was charged with 1.75 ml of the control solution and 1.75 ml of a 1% solution of orange extract. A reference cuvette was charged with 1.75 ml of the orange extract and 1.75 ml of ethanol. The cuvettes were placed in an oven for 30 minutes at 37° C. The absorbency was measured in the manner described above with the test cuvette placed in the sample slot and the reference cuvette placed in the reference slot.
The free radical scavenging activity was calculated as a percentage of inhibition of the generation of the free radicals using the following formula:
Percent Inhibition=100×[1-(DT/DR)]
DT is the measured absorbance of the test cuvette with respect to the reference cuvette and DR is the measured absorbance of the control cuvette with respect to the blank cuvette. […]
In general terms: The DPPH test is a chemical assay of radical scavenging.

For the compound `CC(=O)Oc1c(C)c(C)c2c(c1C)CCC(C)(CCC[C@H](C)CCC[C@H](C)CCCC(C)C)O2` (some centres unmarked) [Tocopheryl Acetate, tocopheryl acetate], the “% INHIBITION” value turned out to be 67%.

With `O=c1oc2cc(O)ccc2s1` [Tioxolone, tioxolone], the “% INHIBITION” value is given as 50%.

The values are drawn from patent US5916576A, “Method of scavenging free radicals using orange extract” (Amway Corporation, priority 1997, dated 1999).
